± gives the expanded uncertainty stated by the source.
Assays:
[1] = 303.15 K; 101.33 kPa; Liquid; Vibrating tube method
[2] = refractive index (Na D-line) (dimensionless); conditions: 303.15 K; 101.33 kPa; Liquid; Standard Abbe refractometry

mass density [1] [kg/m3]	refractive index [2]	Structure (SMILES)
888.65 ± 1	1.40494 ± 0.0011	C=COC(=O)CCC [vinyl butanoate]
800.09 ± 2.1	1.40216 ± 0.0021	CCCC(C)O (configuration not stated) [pentan-2-ol]
849.19 ± 1	1.40283 ± 0.0011	CCCC(=O)OC(C)CCC (configuration not stated) [1-methylbutyl butanoate]
948.44 ± 1	1.39394 ± 0.0011	CCCC(=O)O [butanoic acid]

Structure (SMILES)	mass density [1] [kg/m3]	refractive index [2]
CCn1cc[n+](C)c1.O=S(=O)([N-]S(=O)(=O)C(F)(F)F)C(F)(F)F	1513.74 ± 1.2	1.42162 ± 0.0011
CCCCCC[n+]1ccn(C)c1.O=S(=O)([N-]S(=O)(=O)C(F)(F)F)C(F)(F)F	1367.17 ± 1.1	1.42851 ± 0.0011

Source: the NIST ThermoML archive (doi:10.1016/j.jct.2016.08.033)
